Experimental findings from US20090313709A1, “Genetically Modified Animal and Use Thereof” (priority 2006, published 2009) are described below.

In experiment [1] the test system is isolated islets of Langerhans derived from control mice. Kind of experiment: Insulin secretion from isolated islets of Langerhans of control mice with addition of palmitic acid. It counts as cell-based, mouse. The conditions noted are these: 0.5 mM palmitic acid, 11 mM glucose, cultured 1 hour, insulin corrected by DNA amount. How it is done: (§1) Starting at 8 week-old, transgenic mice of the 47M strain and 23F strain were fed with a low-fat diet (D12450B, 10 kcal % fat, manufactured by Research Diets, Inc.) or a high-fat diet (D12492, 60 kcal % fat, manufactured by Research Diets, Inc.) for 8 weeks. Each mouse at 16 week-old had the duodenal side ligated, and the common bile duct cannulated, and a 1 mg/ml collagenase solution (manufactured by Wako Pure Chemical) was injected into the mouse pancreas. The pancreas receiving the injection was excised, placed in a tube containing the same collagenase solution, and shaken at 37° C. for 20 minutes. Subsequently, the solution was vigorously mixed for 30 seconds, and a Quenching buffer solution (Hanks Balanced Salt Solution comprising 0.001% DNaseI and 25 mM HEPES) containing 10% FBS was added to make a total volume of 20 ml. The solution was transferred to a Petri dish, and washed twice with the Quenching buffer solution, after which islets of Langerhans were recovered using a pipette under a microscopy, and this was used as the test sample. […] Meanwhile, after cultivation, islets of Langerhans were disrupted by sonication using a sonicator (manufactured by M & S Instruments Trading Inc.), the amount of DNA was determined using a Quant-iT™ Picogreen ds DNA Assay kit (manufactured by Molecular Probes), and the amount of insulin secreted was corrected.

Experiment [2] has as its system isolated islets of Langerhans derived from human GPR40 gene transgenic mice of the 47M strain. Kind of experiment: Insulin secretion from isolated islets of Langerhans of human GPR40 gene transgenic mice (47M strain) with addition of palmitic acid. It is filed as cell-based. The conditions noted are these: transgenic mouse 47M strain islets; 0.5 mM palmitic acid, 11 mM glucose, cultured 1 hour; insulin corrected by DNA amount. How it is done:
as §1

As for `CCCCCCCCCCCCCCCC(=O)O` [palmitic acid], the “amount of insulin secreted, increase compared with the no-addition group” value was “about 1.5 times” in experiment [1] and “about 6 times” in experiment [2].
